Laboratory results: US11446294B2, “Non-platinum-based anti-cancer compounds for use in targeted chemotherapy” (priority 2013, dated 2022)
“Also recorded” adds a separate entry of the source.

Tests used:
[1] = fs-TRLS observation of DET reaction with a weakly-bound electron; settings: pump 350 nm, probe 400 nm; for DET reaction with weakly-bound electron ewb−: identical conditions
Source text: Femtosecond (fs) time-resolved laser spectroscopy (fs-TRLS) is the most versatile and powerful technique for real-time observation of molecular reactions. It uses laser flashes of such short duration that we are down to the time scale on which the reactions actually happen—femtoseconds (fs) (1 fs=10^−15 seconds). […] For the latter, briefly our fs laser amplifier system (Spectra-Physics, Spitfire) produced laser pulses with a pulse width of 100-120 fs at a repetition rate of 500 Hz. A intense pump pulse at 350 nm was used to generate a weakly-bound electron (ewb^−) by 2-photon excitation of a H2O molecule into a higher energy state H2O* that then ionizes to produce an ewb^−; a probe pulse at 400 nm coming at certain delay was used to monitor the DET reaction with the electron by detecting transient absorbance of the reaction intermediate anion state.

[2] = tested on: human cervical cancer (ME-180) cells; assay: MTT cell viability, ME-180; type: cell-based; settings: ME-180, 96-hr treatment
Description: (§1) The complete growth media for ME-180, NIH:OVCAR-3, A549 and MDA-MB-231 cells were the ATCC-formulated McCoy's 5A Medium supplemented with 10% FBS, RPMI 1640 medium with 20%, F-12K medium with 10% FBS, and L-15 Medium (Leibovitz) with 10% FBS, respectively.
(§2) The MTT assay of cell viability was then conducted.

[3] = tested on: human breast cancer (MDA-MB-231) cells; assay: MTT cell viability, MDA-MB-231; type: cell-based; settings: MDA-MB-231, 96-hr treatment
Description: as §1, §2

[4] = tested on: human cervical cancer (HeLa) cells; assay: MTT cell viability, HeLa; type: cell-based; settings: 96-hr treatment
[5] = tested on: human lung cancer (A549) cells; assay: MTT cell viability, A549; type: cell-based
Description: as §1, §2

[6] = tested on: human normal cells (GM05757); assay: MTT cell viability, human normal cells (toxicity); settings: for toxicity to human normal cells (cell survival rate): GM05757, 96-hr treatment, up to 200 μM
Description: A human skin diploid fibroblast (GM05757 cell line) was obtained from the Coriell Cell Repository directly. Fetal bovine serum (FBS) was obtained from Hyclone Laboratories (UT, USA). The GM05757 normal cells were cultivated with MEM (Hyclone) supplemented with 10% FBS, 100 units/mL penicillin G and 100 μg/mL streptomycin (Hyclone). The cells were maintained at 37° C. in a humidified atmosphere containing 5% CO2.
The toxic effects of NPBs on cell viability were determined by the 3-[4,5-dimethylthiazol-2-yl]-2,5-diphenyl tetrazoliumbromide (MTT) assay. Cells were cultured in 96-well plates (5×10^3 cells/well) for 24 h. The culture medium was replaced by fresh culture medium and incubated for 72 or 96 h with varying drug concentrations. The MTT assay of cell viability was then conducted. Briefly, 100 μl new medium without phenol red containing 1.2 mM MTT (sigma) (i.e., adding 10 μl 12 mM MTT stock solution in PBS) were added to each well and incubated for 4 h. The medium was then removed, and the formazan crystals solubilized by 100 μL/well DMSO (or alternatively by 100 μl/well SDS and incubated for another 4 h). The surviving fraction was determined by measuring the absorbance at 540 nm (570 nm for SDS solubilization) using a Multiskan Spectrum UV/Vis microplate reader (Thermo Scientific), which is directly proportional to the number of viable cells.

[7] = tested on: cisplatin-resistant human ovarian cancer (NIH:OVCAR-3, HTB-161) cells; assay: MTT cell viability, HTB-161; type: cell-based; settings: HTB-161, 96-hr treatment
Description: as §1, §2

[8] = tested on: human cervical cancer (ME-180) tumor; assay: Xenograft mouse model of human cervical cancer (ME-180); type: in vivo, SCID mice; settings: 7 mg/kg daily for 5 days, IP
Description: The two groups in the experiment were: (1) control article (5% EtOH/medium); (2) Compound B at 7 mg/kg in 5% EtOH/medium daily for 5 days, as shown in Table 1.
(§3) 6-8 week SCID mice were used in this study; Compound B as an exemplary NPB was dissolved in 5% EtOH: 95% cell culture medium (≈1:20).
ME-180 (human cervical cancer) cells were cultured in the ATCC-formulated McCoy's 5A Medium supplemented with 10% FBS. […] The cells were rinsed with PBS, trypsined for detachment from the bottom of the flask, mixed with fresh growth medium, and centrifuged to remove the supernatant. The cells were re-suspend with fresh medium to appropriate concentration for s.c. injection into the mice. Injection volume was 50 μl (1.5×10^6 cells) per animal.
ME-180 tumour cells were subcutaneously into female SCID mice (age 6-8 weeks) in a volume of 50 μL into the left flank using a 27-gauge needle. This was established as a subcutaneous (SC) xenograft mouse model of human cervical cancer.
(§4) Mice were individually weighed and injected intraperitoneally according to body weight for an injection concentration as outlined in the study group table above. The injection volume was based on 200 μL per 20 g mouse. The skin surface was wiped down with 70% isopropyl alcohol to clean the injection site.
Tumor size was measured as a function of time to assess tumor growth delay associated with treatment using slide caliper. […]

[9] = tested on: human cervical cancer (ME-180) cells; assay: γH2AX DNA damage assay (DNA double-strand breaks); type: cell-based; settings: ME-180, 12 h treatment
Description: The γH2AX DNA damage assay (Invitrogen) was used to detect DSBs of genomic DNA in cancer cells. The phosphorylated H2AX foci are a biomarker of DNA DSB. DNA DSBs are measured by specific antibody-based detection of phosphorylated H2AX (γH2AX) in the nucleus. Briefly, the human cervical cancer (ME-180) cells were treated with different concentrations of compound B for 12 h under the cell culture conditions described above. Then following the detailed experimental procedures described in the Protocol provided by the manufacturer, we performed the HCS DNA Damage Assay of the treated cells. The images of cells were acquired with a Nikon Eclipse TS100 fluorescence microscope; quantitative analyses of activated γ-H2AX (DNA DBS yield) in the cells were performed using an Image J software.

[10] = tested on: human cervical cancer (ME-180) cells; assay: CellEvent Caspase-3/7 apoptosis assay by fluorescence microscopy; type: cell-based; settings: 48 h
Source text: Human cervical cancer (ME-180) cells were purchased from the American Type Culture Collection (ATCC).
The CellEvent™ Caspase-3/7 Green Detection Kit (Invitrogen) was used for the detection of activated caspases and apoptotic cells following the vendor's protocol. This kit provides a […] specific for caspase-3 and -7; the cells show green fluorescence for activated caspase-3 and -7. The reagent consists of a four amino acid peptide (DEVD) conjugated to a nucleic acid binding dye. This cell-permeant substrate is intrinsically non-fluorescent, because the DEVD peptide inhibits the ability of the dye to bind to DNA. After activation of caspase-3 or caspase-7 in apoptotic cells, the DEVD peptide is cleaved, enabling the dye to bind to DNA and produce green fluorescence. Briefly, to use the CellEvent™ Caspase-3/7 Green Detection Reagent, add the substrate to the cells in complete growth medium, incubate for 30 minutes, and image. […] Because the cleaved reagent labels nuclei of caspase 3/7-positive cells, this stain can also provide information on nuclear morphology, including condensed nuclei typical of late-stage apoptosis. ME-180 cells were grown to 60% confluence and then treated with 0-200 μM compound B for 48 h. The fluorescence was detected with a Nikon Eclipse TS100 microscope. Images were captured with an attached camera.

[11] = In vivo toxicity in SCID mice
Description: The two groups (five 6-8 week SCID mice/group) in the experiment were: (1) control article (in 5% EtOH/medium); and (2) Compound B 7 mg/kg in 5% EtOH/medium, as shown in Table 2. Compound B was injected IP every day for 5 days.
as §3
as §4, with “6-8 week SCID Mice” for “Mice”, “intraperitoneally (IP)” for “intraperitoneally”, “above. Compound B was administered by IP injection into mice at 0, and 7 mg/kg daily for 5 days.” for “above.”
The overall drug toxicity in mice was observed by a survival assay and body weight measurements, and the acute drug toxicity was measured by blood collection and histology. The hepatotoxicity (ALT, ALP, total bilirubin), nephrotoxicity (blood urea, creatinine), and electrolytes (Na, K, Cl) were analyzed by biochemical methods or HPLC-mass spectroscopy. […] Blood samples were collected from the saphenous vein at various time points after drug injection. At the end of the study, whole organs were harvested in order to assess liver, and kidney toxicity.
All animals were observed post administration, and at least once a day, more if deemed necessary, during the pre-treatment and treatment periods for mortality and morbidity. In particular, animals were monitored for signs of ill health such as body weight loss, change in appetite, behavior changes such as altered gait, lethargy and gross manifestations of stress.

[12] = mouse, in vivo, ip, 7 mg/kg/day

Compound | DET reaction with weakly-bound electron ewb− [1] | cell survival rate (killing of cancer cells) [2] | cell survival rate (killing of cancer cells) [3] | cell survival rate (killing of cancer cells) [4] | cell survival rate (killing of cancer cells) ([5]; A549, 96 hr treatment) | toxicity to human normal cells (cell survival rate) [6] | cell survival rate (killing of cisplatin-resistant cancer cells) [7] | also measured
O=c1[nH]c(=O)n([C@H]2C[C@H](O)[C@@H](CO)O2)cc1Br [BrdU, bromodeoxyuridine] | no DET reactions detected; also recorded: negligible; also recorded: no DET reaction |  |  |  |  |  |  | 
Nc1cc(Cl)c(Cl)cc1N [Compound A, 4,5-dichloro-1,2-phenylenediamine] |  | significant killing | significant killing | significant killing | significant killing | essentially no toxicity; also recorded: little toxicity | significant killing | 
Nc1cc(Br)c(Br)cc1N [Compound B, 4,5-dibromo-1,2-phenylenediamine] | highly effective | significant killing | significant killing | significant killing | significant killing | essentially no toxicity; also recorded: little toxicity | significant killing | tumor growth vs control group [8]: significantly suppressed tumor growth; yield of DNA double-strand breaks (γ-H2AX intensity) [9]: significant amount of DNA DSBs; activation of caspase-3 and -7 ([10]; ME-180, 0-200 μM): significant activation; population of apoptotic cells ([10]; ME-180, 200 μM): ≥ 60%; dissociative lifetime of NPB*− ([1]; ethanol): ~6.0 ps; overall toxicity ([11]; 7 mg/kg daily for 5 days, IP): no overall drug toxicity; electrolytes (Na, K, Cl) [11, 12]: no changes in electrolytes; hepatotoxicity (ALT, ALP, total bilirubin) [11, 12]: no hepatotoxicity; nephrotoxicity (blood urea, creatinine) [11, 12]: no nephrotoxicity
Nc1cc(I)c(I)cc1N [Compound C, 4,5-diiodo-1,2-phenylenediamine] |  |  | significant killing | significant killing |  | essentially no toxicity; also recorded: little toxicity | significant killing | cell survival rate (killing of cancer cells) ([5]; A549, 72 hr treatment): significant killing
O=c1[nH]c(=O)n([C@H]2C[C@H](O)[C@@H](CO)O2)cc1I [IdU, iododeoxyuridine] | no DET reactions detected; also recorded: negligible; also recorded: no DET reaction |  |  |  |  |  |  | 
bromo-(1,2-)diamino-benzene [Compound D] |  | significant killing | significant killing | significant killing | significant killing | essentially no toxicity; also recorded: little toxicity | significant killing | 
cis-Pt(NH3)2Cl2 [cisplatin, reference compound] |  |  |  |  |  |  |  | IC50 ([6]; read-out: IC50 (cell survival rate 50% with respect to untreated cells), GM05757, 72-hr treatment): ~10 µM
